# Experimental data taken from patent publication US20260297085A1, “1 H-PYRROLO[2,3-B]PYRIDIN-4-YL]-2-OXOPYRROLIDINE-3-CARBONITRILE DERIVATIVES AS TYROSINE KINASE 2 (TYK2) INHIBITORS FOR THE TREATMENT OF INFLAMMATORY DISEASES” (BIOGEN MA INC., priority 2023, published 2026).
# Legend:
# [1] = biological target: Tyk2 kinase activity on STAT4 in NK92 cells (Homo sapiens, UniProt P29597); experiment: pSTAT4 cell assay (MSD; NK92 cells, 30 ng/mL IL2 stimulation); format: cell-based; conditions: 30 ng/mL IL2, 15 minutes
# Method in brief: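 Serum-starved NK92 cells were preincubated 1 hr with compound (10-point, four-fold dilutions from 10 μM), then stimulated with 30 ng/mL IL2 for 15 minutes. Lysates were read on an MSD plate assay using anti-STAT4 antibodies, and IC50 came from a 4-parameter logistic fit of normalized percent activity.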
# [2] = biological target: T1, human JAK1 kinase domain (JH1) (Homo sapiens, UniProt P23458); experiment: JH1 biochemical assay for JAK1 (ADP-Glo kinase assay, recombinant JH1 catalytic domain, JAK3-342 peptide, 35 μM ATP); conditions: JH1 kinase domain, ADP-Glo
# T1 construct: recombinantly generated catalytic kinase (also known as JH1) domain of human JAK1, JAK2, JAK3 and TYK2
# Method in brief: (§1)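 Reactions ran 100 min with 50 μM substrate peptide (JAK3-342 for JAK1 at 4 nM enzyme; JAK3-974 for JAK2 0.2 nM, JAK3 0.3 nM, TYK2 2 nM), and ADP formed was read by ADP-Glo luminescence. Eleven-point 3-fold series from 10 or 1 μM; IC50 fitted by 4-parameter logistic model.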
# [3] = biological target: T2, human JAK2 kinase domain (JH1) (Homo sapiens, UniProt O60674); experiment: JH1 biochemical assay for JAK2 (ADP-Glo kinase assay, recombinant JH1 catalytic domain, JAK3-974 peptide, 15 μM ATP); conditions: JH1 kinase domain, ADP-Glo
# T2 construct: recombinantly generated catalytic kinase (also known as JH1) domain of human JAK1, JAK2, JAK3 and TYK2
# Method in brief: as §1
# [4] = biological target: JAK2 kinase activity on STAT5 in TF1 cells (Homo sapiens, UniProt O60674); experiment: pSTAT5 cell assay (MSD; TF1 cells, 30 ng/mL IL-3 stimulation); format: cell-based; conditions: 30 ng/mL IL-3, 15 minutes
# Method in brief: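 Serum-starved TF1 cells with native JAK2/STAT5 were pretreated 1 h with compound (10-point four-fold dilutions from 10 μM), then stimulated 15 min with 30 ng/mL IL-3. pSTAT5 in lysates quantified by MSD immunoassay; normalized percent activity fitted to a 4-parameter logistic curve for IC50.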
# [5] = biological target: T3, human JAK3 kinase domain (JH1) (Homo sapiens, UniProt P52333); experiment: JH1 biochemical assay for JAK3 (ADP-Glo kinase assay, recombinant JH1 catalytic domain, JAK3-974 peptide, 4 μM ATP); conditions: JH1 kinase domain, ADP-Glo
# T3 construct: recombinantly generated catalytic kinase (also known as JH1) domain of human JAK1, JAK2, JAK3 and TYK2
# Method in brief: as §1
# [6] = biological target: T4, human TYK2 kinase domain (JH1) (Homo sapiens, UniProt P29597); experiment: JH1 biochemical assay for TYK2 (ADP-Glo kinase assay, recombinant JH1 catalytic domain, JAK3-974 peptide, 10 μM ATP); conditions: JH1 kinase domain, ADP-Glo
# T4 construct: recombinantly generated catalytic kinase (also known as JH1) domain of human JAK1, JAK2, JAK3 and TYK2
# T4 sequence (P29597 897-1176 limits assumed): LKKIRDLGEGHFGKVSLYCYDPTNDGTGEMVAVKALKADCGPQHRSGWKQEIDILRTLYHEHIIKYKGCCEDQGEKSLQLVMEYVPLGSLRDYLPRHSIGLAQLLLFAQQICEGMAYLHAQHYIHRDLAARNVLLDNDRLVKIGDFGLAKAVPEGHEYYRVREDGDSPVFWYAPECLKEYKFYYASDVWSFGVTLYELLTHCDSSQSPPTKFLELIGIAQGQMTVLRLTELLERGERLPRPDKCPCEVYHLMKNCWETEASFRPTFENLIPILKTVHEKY
# Method in brief: as §1
# [7] = biological target: JAK1 kinase activity on STAT3 in TF1 cells (Homo sapiens, UniProt P23458); experiment: pSTAT3 cell assay (MSD; TF1 cells, 30 ng/mL IL-6 stimulation); format: cell-based; conditions: 30 ng/mL IL-6, 15 minutes
# Method in brief: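 Readout is pSTAT3 in lysates, quantified on an MSD plate assay using anti-STAT3 antibodies. Before lysis, TF1 cells had been serum-starved, exposed to compound for 1 hour across ten four-fold dilutions starting at 10 μM, and given IL-6 for 15 minutes.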
# T1 sequence (P23458 875-1153 limits assumed): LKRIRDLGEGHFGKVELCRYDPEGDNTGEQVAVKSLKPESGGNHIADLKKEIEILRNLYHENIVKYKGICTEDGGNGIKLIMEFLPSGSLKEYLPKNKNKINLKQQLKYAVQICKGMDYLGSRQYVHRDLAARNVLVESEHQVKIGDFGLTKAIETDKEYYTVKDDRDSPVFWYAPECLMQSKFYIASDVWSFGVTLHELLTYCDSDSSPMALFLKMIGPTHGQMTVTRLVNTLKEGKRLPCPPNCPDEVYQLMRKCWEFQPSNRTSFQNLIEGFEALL
# T3 sequence (P52333 822-1111 limits assumed): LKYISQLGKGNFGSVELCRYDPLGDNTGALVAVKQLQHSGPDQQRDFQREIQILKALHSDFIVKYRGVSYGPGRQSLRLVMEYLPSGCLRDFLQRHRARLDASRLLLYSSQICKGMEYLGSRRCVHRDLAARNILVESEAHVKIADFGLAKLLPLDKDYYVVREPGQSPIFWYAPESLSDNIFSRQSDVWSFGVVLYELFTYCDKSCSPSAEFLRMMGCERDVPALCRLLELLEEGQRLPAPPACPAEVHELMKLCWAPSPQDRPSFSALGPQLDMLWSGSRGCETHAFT
# JAK1 kinase activity on STAT3 in TF1 cells, sequence (P23458 whole entry): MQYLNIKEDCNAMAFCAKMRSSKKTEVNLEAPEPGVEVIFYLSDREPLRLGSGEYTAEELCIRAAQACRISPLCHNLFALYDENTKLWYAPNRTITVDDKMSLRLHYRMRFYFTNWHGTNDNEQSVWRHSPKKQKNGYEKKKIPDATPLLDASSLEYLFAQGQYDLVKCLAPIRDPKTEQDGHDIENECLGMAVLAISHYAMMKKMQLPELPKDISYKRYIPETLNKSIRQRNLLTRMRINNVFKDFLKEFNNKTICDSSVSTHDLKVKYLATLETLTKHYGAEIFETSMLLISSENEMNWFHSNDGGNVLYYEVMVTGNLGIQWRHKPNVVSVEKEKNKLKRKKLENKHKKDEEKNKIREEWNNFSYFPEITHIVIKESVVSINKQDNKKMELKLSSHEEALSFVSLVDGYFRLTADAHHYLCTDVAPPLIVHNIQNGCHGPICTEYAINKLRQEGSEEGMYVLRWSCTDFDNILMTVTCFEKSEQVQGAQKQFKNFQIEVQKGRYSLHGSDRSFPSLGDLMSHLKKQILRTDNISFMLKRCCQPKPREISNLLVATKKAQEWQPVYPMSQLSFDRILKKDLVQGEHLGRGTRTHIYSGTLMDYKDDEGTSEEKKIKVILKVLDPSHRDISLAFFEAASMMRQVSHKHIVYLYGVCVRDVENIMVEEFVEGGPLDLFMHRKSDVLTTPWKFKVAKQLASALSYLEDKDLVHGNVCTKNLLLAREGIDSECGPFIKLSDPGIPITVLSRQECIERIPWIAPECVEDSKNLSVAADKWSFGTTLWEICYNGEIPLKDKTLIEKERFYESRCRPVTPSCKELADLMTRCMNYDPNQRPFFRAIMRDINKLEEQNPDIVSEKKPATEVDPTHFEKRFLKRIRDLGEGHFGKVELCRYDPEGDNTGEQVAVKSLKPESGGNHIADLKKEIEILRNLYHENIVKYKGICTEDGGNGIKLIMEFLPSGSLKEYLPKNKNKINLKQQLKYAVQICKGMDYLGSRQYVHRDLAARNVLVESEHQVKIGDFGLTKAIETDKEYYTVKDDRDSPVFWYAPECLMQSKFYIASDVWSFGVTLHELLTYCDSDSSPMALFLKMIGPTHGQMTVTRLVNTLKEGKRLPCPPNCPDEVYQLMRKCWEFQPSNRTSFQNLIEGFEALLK
# T2 sequence (O60674 849-1124 limits assumed): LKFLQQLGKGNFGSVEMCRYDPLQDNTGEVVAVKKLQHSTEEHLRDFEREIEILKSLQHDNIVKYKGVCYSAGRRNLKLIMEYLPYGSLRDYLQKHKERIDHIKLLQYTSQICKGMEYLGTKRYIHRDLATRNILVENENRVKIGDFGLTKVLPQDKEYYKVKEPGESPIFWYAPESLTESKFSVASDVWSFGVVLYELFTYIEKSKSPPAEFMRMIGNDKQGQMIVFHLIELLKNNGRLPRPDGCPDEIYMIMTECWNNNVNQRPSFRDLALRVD
# Tyk2 kinase activity on STAT4 in NK92 cells, sequence (P29597 whole entry): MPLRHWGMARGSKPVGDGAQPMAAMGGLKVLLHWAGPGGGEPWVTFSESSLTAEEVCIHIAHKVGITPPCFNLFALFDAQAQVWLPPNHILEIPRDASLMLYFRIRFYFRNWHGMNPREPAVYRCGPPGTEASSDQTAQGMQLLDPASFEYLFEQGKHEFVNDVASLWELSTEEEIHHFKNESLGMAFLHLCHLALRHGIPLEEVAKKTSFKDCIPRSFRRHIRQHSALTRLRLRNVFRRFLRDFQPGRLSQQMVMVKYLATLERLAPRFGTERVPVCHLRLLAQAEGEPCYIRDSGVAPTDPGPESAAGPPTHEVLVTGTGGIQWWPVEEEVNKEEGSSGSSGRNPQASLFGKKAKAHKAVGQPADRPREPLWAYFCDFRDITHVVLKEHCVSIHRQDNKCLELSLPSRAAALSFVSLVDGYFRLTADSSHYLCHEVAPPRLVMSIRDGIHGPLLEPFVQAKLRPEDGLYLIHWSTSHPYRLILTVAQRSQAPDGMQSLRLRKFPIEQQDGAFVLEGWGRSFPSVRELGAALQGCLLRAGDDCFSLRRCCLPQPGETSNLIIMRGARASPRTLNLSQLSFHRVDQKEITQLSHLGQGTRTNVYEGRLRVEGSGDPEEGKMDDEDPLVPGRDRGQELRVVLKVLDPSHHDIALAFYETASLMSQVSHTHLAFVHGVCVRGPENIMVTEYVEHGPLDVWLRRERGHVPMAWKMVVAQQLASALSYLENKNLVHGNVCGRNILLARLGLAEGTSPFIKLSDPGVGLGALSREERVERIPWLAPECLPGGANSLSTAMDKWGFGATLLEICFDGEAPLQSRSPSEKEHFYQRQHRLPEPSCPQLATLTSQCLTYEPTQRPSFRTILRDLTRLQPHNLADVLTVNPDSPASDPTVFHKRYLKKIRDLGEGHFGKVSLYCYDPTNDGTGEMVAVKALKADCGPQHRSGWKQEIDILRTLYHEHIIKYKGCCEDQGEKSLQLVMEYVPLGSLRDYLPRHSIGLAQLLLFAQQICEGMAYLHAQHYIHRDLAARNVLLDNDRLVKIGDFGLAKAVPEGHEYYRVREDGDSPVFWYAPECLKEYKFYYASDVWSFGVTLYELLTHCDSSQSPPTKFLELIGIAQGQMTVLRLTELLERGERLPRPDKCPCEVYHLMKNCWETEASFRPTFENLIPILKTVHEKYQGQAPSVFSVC
# JAK2 kinase activity on STAT5 in TF1 cells, sequence (O60674 whole entry): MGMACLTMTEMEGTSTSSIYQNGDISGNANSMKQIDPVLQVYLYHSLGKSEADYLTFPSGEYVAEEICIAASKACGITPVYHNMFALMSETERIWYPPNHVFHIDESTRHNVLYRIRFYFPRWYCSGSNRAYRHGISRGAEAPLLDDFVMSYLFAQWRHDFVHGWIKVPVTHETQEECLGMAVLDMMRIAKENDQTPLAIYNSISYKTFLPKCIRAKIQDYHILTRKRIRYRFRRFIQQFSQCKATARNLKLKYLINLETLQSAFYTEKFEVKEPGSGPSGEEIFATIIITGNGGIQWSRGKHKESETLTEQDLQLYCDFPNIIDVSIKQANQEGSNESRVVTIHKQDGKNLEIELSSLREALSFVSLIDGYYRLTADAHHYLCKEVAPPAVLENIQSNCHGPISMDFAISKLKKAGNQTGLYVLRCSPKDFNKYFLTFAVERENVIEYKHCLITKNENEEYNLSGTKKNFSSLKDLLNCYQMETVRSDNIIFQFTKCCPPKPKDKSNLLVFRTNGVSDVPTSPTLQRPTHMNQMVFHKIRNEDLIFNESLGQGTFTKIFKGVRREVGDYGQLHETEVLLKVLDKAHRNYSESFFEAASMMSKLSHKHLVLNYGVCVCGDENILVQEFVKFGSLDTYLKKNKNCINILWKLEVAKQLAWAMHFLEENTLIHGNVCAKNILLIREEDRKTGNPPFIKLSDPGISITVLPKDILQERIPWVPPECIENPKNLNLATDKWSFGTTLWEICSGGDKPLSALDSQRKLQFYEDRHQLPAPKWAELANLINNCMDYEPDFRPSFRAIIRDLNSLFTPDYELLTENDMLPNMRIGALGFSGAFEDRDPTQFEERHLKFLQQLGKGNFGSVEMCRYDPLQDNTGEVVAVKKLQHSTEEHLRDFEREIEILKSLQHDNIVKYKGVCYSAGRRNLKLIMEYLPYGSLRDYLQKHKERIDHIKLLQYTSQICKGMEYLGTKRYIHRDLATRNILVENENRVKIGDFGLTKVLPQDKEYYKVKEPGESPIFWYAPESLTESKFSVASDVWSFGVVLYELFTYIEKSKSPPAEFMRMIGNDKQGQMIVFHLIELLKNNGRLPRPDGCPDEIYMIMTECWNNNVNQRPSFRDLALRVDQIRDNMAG
IC50 [1],IC50 [2],IC50 [3],IC50 [4],IC50 [5],IC50 [6],IC50 [7],SMILES
50 to 100 nM,< 100 nM,< 100 nM,100 to 1000 nM,< 100 nM,< 5 nM,100 to 1000 nM,"C[C@@H]1CN(c2nc(-c3cnn(C4CC4(F)F)c3)cn3nccc23)C(=O)[C@]1(C#N)C1CC1 (stereo partly drawn) [Example 198, (3R,4S)-3-cyclopropyl-1-(6-(1-(2,2-difluorocyclopropyl)-1H-pyrazol-4-yl)pyrazolo[1,5-a]pyrazin-4-yl)-4-methyl-2-oxopyrrolidine-3-carbonitrile]"
> 100 nM,< 100 nM,100 to 1000 nM,5000 to 10000 nM,100 to 1000 nM,5 to 20 nM,1000 to 5000 nM,"Cc1c(-c2cn3nccc3c(N3C[C@@H](C)[C@@](C#N)(C4CC4)C3=O)n2)cnn1C [Example 199, (3R,4S)-3-cyclopropyl-1-(6-(1,5-dimethyl-1H-pyrazol-4-yl)pyrazolo[1,5-a]pyrazin-4-yl)-4-methyl-2-oxopyrrolidine-3-carbonitrile]"
20 to 50 nM,< 100 nM,< 100 nM,100 to 1000 nM,< 100 nM,< 5 nM,100 to 1000 nM,"[2H]C([2H])([2H])n1cc(-c2cn3nccc3c(N3C[C@@H](C)[C@@](C#N)(C4CC4)C3=O)n2)cn1 [Example 201, (3R,4S)-3-cyclopropyl-4-methyl-1-(6-(1-(methyl-d3)-1H-pyrazol-4-yl)pyrazolo[1,5-a]pyrazin-4-yl)-2-oxopyrrolidine-3-carbonitrile]"
50 to 100 nM,< 100 nM,< 100 nM,100 to 1000 nM,< 100 nM,< 5 nM,100 to 1000 nM,"CCn1cc(-c2cn3nccc3c(N3C[C@@H](C)[C@@](C#N)(C4CC4)C3=O)n2)cn1 [Example 202, (3R,4S)-3-cyclopropyl-1-(6-(1-ethyl-1H-pyrazol-4-yl)pyrazolo[1,5-a]pyrazin-4-yl)-4-methyl-2-oxopyrrolidine-3-carbonitrile]"
20 to 50 nM,< 100 nM,< 100 nM,< 100 nM,< 100 nM,< 5 nM,100 to 1000 nM,"C[C@@H]1CN(c2nc(-c3cnn(C4CCOCC4)c3)cn3nccc23)C(=O)[C@]1(C#N)C1CC1 [Example 203, (3R,4S)-3-cyclopropyl-4-methyl-2-oxo-1-(6-(1-(tetrahydro-2H-pyran-4-yl)-1H-pyrazol-4-yl)pyrazolo[1,5-a]pyrazin-4-yl)pyrrolidine-3-carbonitrile]"
50 to 100 nM,< 100 nM,< 100 nM,1000 to 5000 nM,< 100 nM,< 5 nM,1000 to 5000 nM,"C[C@@H]1CN(c2nc(-c3cnc4c(c3)CCC(=O)N4)cn3nccc23)C(=O)[C@]1(C#N)C1CC1 [Example 204, (3R,4S)-3-cyclopropyl-4-methyl-2-oxo-1-(6-(7-oxo-5,6,7,8-tetrahydro-1,8-naphthyridin-3-yl)pyrazolo[1,5-a]pyrazin-4-yl)pyrrolidine-3-carbonitrile]"
> 100 nM,< 100 nM,< 100 nM,5000 to 10000 nM,< 100 nM,< 5 nM,1000 to 5000 nM,"C[C@@H]1CN(c2nc(-c3cnc4c(c3)CC(=O)N4)cn3nccc23)C(=O)[C@]1(C#N)C1CC1 [Example 205, (3R,4S)-3-cyclopropyl-4-methyl-2-oxo-1-(6-(2-oxo-2,3-dihydro-1H-pyrrolo[2,3-b]pyridin-5-yl)pyrazolo[1,5-a]pyrazin-4-yl)pyrrolidine-3-carbonitrile]"
> 100 nM,100 to 1000 nM,100 to 1000 nM,> 10000 nM,100 to 1000 nM,5 to 20 nM,> 10000 nM,"C[C@@H]1CN(c2nc(-c3cnn(C)c3)cn3ncc(Cl)c23)C(=O)[C@]1(C#N)C1CC1 [Example 206, (3R,4S)-1-(3-chloro-6-(1-methyl-1H-pyrazol-4-yl)pyrazolo[1,5-a]pyrazin-4-yl)-3-cyclopropyl-4-methyl-2-oxopyrrolidine-3-carbonitrile]"

# Further lines, the compound ahead of its results:
SMILES,IC50 [1],IC50 [2],IC50 [3],IC50 [4],IC50 [5],IC50 [6],IC50 [7]
"C[C@@H]1CN(c2nc(-c3cnn(C(F)F)c3)cn3ncc(F)c23)C(=O)[C@]1(C#N)C1CC1 [Example 189, (3R,4S)-3-cyclopropyl-1-(6-(1-(difluoromethyl)-1H-pyrazol-4-yl)-3-fluoropyrazolo[1,5-a]pyrazin-4-yl)-4-methyl-2-oxopyrrolidine-3-carbonitrile]",50 to 100 nM,< 100 nM,100 to 1000 nM,1000 to 5000 nM,< 100 nM,< 5 nM,1000 to 5000 nM
"CC(C)n1cc(-c2cn3ncc(F)c3c(N3C[C@@H](C)[C@@](C#N)(C4CC4)C3=O)n2)cn1 [Example 190, (3R,4S)-3-cyclopropyl-1-(3-fluoro-6-(1-isopropyl-1H-pyrazol-4-yl)pyrazolo[1,5-a]pyrazin-4-yl)-4-methyl-2-oxopyrrolidine-3-carbonitrile]",20 to 50 nM,< 100 nM,< 100 nM,1000 to 5000 nM,< 100 nM,< 5 nM,100 to 1000 nM
"C[C@@H]1CN(c2nc(-c3cnn([C@H]4CCOC4)c3)cn3ncc(F)c23)C(=O)[C@]1(C#N)C1CC1 [Example 191, (3R,4S)-3-cyclopropyl-1-(3-fluoro-6-(1-((S)-tetrahydrofuran-3-yl)-1H-pyrazol-4-yl)pyrazolo[1,5-a]pyrazin-4-yl)-4-methyl-2-oxopyrrolidine-3-carbonitrile]",50 to 100 nM,< 100 nM,< 100 nM,1000 to 5000 nM,< 100 nM,< 5 nM,1000 to 5000 nM
"C[C@@H]1CN(c2nc(-c3cnn4c3COCC4)cn3ncc(F)c23)C(=O)[C@]1(C#N)C1CC1 [Example 192, (3R,4S)-3-cyclopropyl-1-(6-(6,7-dihydro-4H-pyrazolo[5,1-c][1,4]oxazin-3-yl)-3-fluoropyrazolo[1,5-a]pyrazin-4-yl)-4-methyl-2-oxopyrrolidine-3-carbonitrile]",> 100 nM,< 100 nM,100 to 1000 nM,> 10000 nM,< 100 nM,5 to 20 nM,1000 to 5000 nM
"COc1cccc(-c2cn3nccc3c(N3C[C@@H](C)[C@@](C#N)(C4CC4)C3=O)n2)n1 [Example 193, (3R,4S)-3-cyclopropyl-1-(6-(6-methoxypyridin-2-yl)pyrazolo[1,5-a]pyrazin-4-yl)-4-methyl-2-oxopyrrolidine-3-carbonitrile]",> 100 nM,100 to 1000 nM,> 10000 nM,> 10000 nM,> 10000 nM,5 to 20 nM,> 10000 nM
"C[C@@H]1CN(c2nc(-c3cccnc3)cn3nccc23)C(=O)[C@]1(C#N)C1CC1 [Example 194, (3R,4S)-3-cyclopropyl-4-methyl-2-oxo-1-(6-(pyridin-3-yl)pyrazolo[1,5-a]pyrazin-4-yl)pyrrolidine-3-carbonitrile]",> 100 nM,< 100 nM,100 to 1000 nM,1000 to 5000 nM,< 100 nM,< 5 nM,1000 to 5000 nM
"C[C@@H]1CN(c2nc(-c3ccc(C#N)nc3)cn3nccc23)C(=O)[C@]1(C#N)C1CC1 [Example 195, 5-(4-((3R,4S)-3-cyano-3-cyclopropyl-4-methyl-2-oxopyrrolidin-1-yl)pyrazolo[1,5-a]pyrazin-6-yl)picolinonitrile]",> 100 nM,< 100 nM,100 to 1000 nM,> 10000 nM,< 100 nM,5 to 20 nM,1000 to 5000 nM
"C[C@@H]1CN(c2nc(-c3ccnc(C#N)c3)cn3nccc23)C(=O)[C@]1(C#N)C1CC1 [Example 197, 4-(4-((3R,4S)-3-cyano-3-cyclopropyl-4-methyl-2-oxopyrrolidin-1-yl)pyrazolo[1,5-a]pyrazin-6-yl)picolinonitrile]",> 100 nM,< 100 nM,100 to 1000 nM,> 10000 nM,< 100 nM,5 to 20 nM,1000 to 5000 nM
